PMC3421993 (Journal of Experimental Botany, 2012)

Molecular target: T1, HRP (horseradish peroxidase) (Armoracia rusticana, UniProt P00433)
T1 sequence (P00433 31-338): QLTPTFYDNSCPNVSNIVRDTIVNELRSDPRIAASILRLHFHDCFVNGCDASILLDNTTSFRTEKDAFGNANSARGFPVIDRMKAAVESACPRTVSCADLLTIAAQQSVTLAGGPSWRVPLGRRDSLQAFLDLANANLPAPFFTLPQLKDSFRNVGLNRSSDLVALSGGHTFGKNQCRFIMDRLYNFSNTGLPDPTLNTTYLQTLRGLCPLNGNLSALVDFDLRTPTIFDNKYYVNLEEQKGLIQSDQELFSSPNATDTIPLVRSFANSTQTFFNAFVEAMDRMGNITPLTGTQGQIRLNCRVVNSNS
Experiment: spectrophotometric peroxidase assay, […] nm
Type: biochemical
Conditions: read-out: K m (mM) / Pyrogallol; 3.3 mM H2O2; 100 mM Na-phosphate pH 6.5

Km: 1.1 ± 0.1 mM
SMILES: Oc1cccc(O)c1O [pyrogallol]
